The results in this text go back to patent US20240425524A1, “SPIROTRICYCLE RIPK1 INHIBITORS AND METHODS OF USES THEREOF” (Merck Sharp & Dohme LLC, priority 2021, published 2024).

RIPK1, sequence (Q13546 1-327): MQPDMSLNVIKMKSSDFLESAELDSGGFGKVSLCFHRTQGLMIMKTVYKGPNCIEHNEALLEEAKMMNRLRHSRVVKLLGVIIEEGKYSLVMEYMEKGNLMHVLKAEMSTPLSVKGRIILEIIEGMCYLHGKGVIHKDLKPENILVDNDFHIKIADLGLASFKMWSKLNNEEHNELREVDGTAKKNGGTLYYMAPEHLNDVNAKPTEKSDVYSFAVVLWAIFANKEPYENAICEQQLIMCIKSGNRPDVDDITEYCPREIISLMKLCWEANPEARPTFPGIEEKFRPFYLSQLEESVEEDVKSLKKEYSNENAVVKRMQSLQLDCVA

This assay has as its target RIPK1 (Homo sapiens (Human), UniProt Q13546). The assay is described as follows: RIPK1-ADP-Glo Enzymatic Assay. The settings on record: recombinant GST-RIPK1 kinase domain (residues 1-327), 25 nM, ten-point titration, 30 minutes pre-incubation. In kind it is biochemical. The gist of the method: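 GST-RIPK1 kinase domain (residues 1-327, Sf21-expressed; 25 nM final) was pre-incubated 30 min at ambient temperature with compound (10-point 1:3 series from 100000 nM, 1% DMSO) in HEPES pH 7.3 buffer with 20 mM MgCl2. The reaction was started with 900 μM ATP (addition solution) and 3 μM dephosphorylated MBP and ran 150 min. Read-out was ADP-Glo luminescence, with EC50 from a four-parameter fit.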
In the case of `CC(F)(F)c1ccnc(N2CCC3(CC2)CN2CC[C@@H](c4cc(F)cc(F)c4)N2C3=O)n1` [Example 1.77, (S)-1-(4-(1,1-difluoroethyl)pyrimidin-2-yl)-7′-(3,5-difluorophenyl)dihydro-1′H,3′H,5′H-spiro [piperidine-4,2′-pyrazolo[1,2-a]pyrazol]-1′-one], the 50% effective concentration (EC50) came out at 200 nM.
Then `N#Cc1nccc(N2CCC3(CC2)CN2CC[C@@H](c4cc(F)cc(F)c4)N2C3=O)n1` [Example 1.78, (S)-4-(7′-(3,5-difluorophenyl)-1′-oxodihydro-1′H,3′H,5′H-spiro[piperidine-4,2′-pyrazolo[1,2-a]pyrazol]-1-yl)pyrimidine-2-carbonitrile], with 73 nM; and `O=C1N2[C@H](c3cc(F)cc(F)c3)CCN2CC12CCN(c1nccn3ncnc13)CC2` [Example 1.79, (S)-1-([1,2,4]triazolo[1,5-a]pyrazin-8-yl)-7′-(3,5-difluorophenyl)dihydro-1′H,3′H,5′H-spiro[piperidine-4,2′-pyrazolo[1,2-a]pyrazol]-1′-one], with 30 nM; and `O=C1N2[C@H](c3cc(F)cc(F)c3)CCN2CC12CCN(c1nc3ccccc3o1)CC2` [Example 1.80, (S)-1-(benzo[d]oxazol-2-yl)-7′-(3,5-difluorophenyl)dihydro-1′H,3′H,5′H-spiro[piperidine-4,2′-pyrazolo[1,2-a]pyrazol]-1′-one], with 50 nM.
Take `O=C1N2[C@H](c3cc(F)cc(F)c3)CCN2CC12CCN(c1noc3ccccc13)CC2` [Example 1.81, (S)-1-(benzo[d]isoxazol-3-yl)-7′-(3,5-difluorophenyl)dihydro-1′H,3′H,5′H-spiro[piperidine-4,2′-pyrazolo[1,2-a]pyrazol]-1′-one]: the EC50 is 366 nM.
Regarding `O=C1N2[C@H](c3cc(F)cc(F)c3)CCN2CC12CCN(c1nnc(-c3ccccc3)o1)CC2` [Example 1.82, (S)-7′-(3,5-difluorophenyl)-1-(5-phenyl-1,3,4-oxadiazol-2-yl)dihydro-1′H,3′H,5′H-spiro[piperidine-4,2′-pyrazolo[1,2-a]pyrazol]-1′-one], the EC50 was 333 nM.
Consider `COc1cc(N2CCC3(CC2)CN2CC[C@@H](c4cc(F)cc(F)c4)N2C3=O)ncn1` [Example 1.83, (S)-7′-(3,5-difluorophenyl)-1-(6-methoxypyrimidin-4-yl)dihydro-1′H,3′H,5′H-spiro[piperidine-4,2′-pyrazolo[1,2-a]pyrazol]-1′-one], for which the EC50 came out at 28 nM.
For the compound `COc1nccc(N2CCC3(CC2)CN2CC[C@@H](c4cc(F)cc(F)c4)N2C3=O)n1` [Example 1.84, (S)-7′-(3,5-difluorophenyl)-1-(2-methoxypyrimidin-4-yl)dihydro-1′H,3′H,5′H-spiro[piperidine-4,2′-pyrazolo[1,2-a]pyrazol]-1′-one], the EC50 was 30 nM.
Regarding `COc1nc(N2CCC3(CC2)CN2CC[C@@H](c4cc(F)cc(F)c4)N2C3=O)ncc1F` [Example 1.85, (S)-7′-(3,5-difluorophenyl)-1-(5-fluoro-4-methoxypyrimidin-2-yl)dihydro-1′H,3′H,5′H-spiro[piperidine-4,2′-pyrazolo[1,2-a]pyrazol]-1′-one], the EC50 is 22 nM.
Regarding `CNC(=O)c1cc(N2CCC3(CC2)CN2CC[C@@H](c4cc(F)cc(F)c4)N2C3=O)ncn1` [Example 1.86, (S)-6-(7′-(3,5-difluorophenyl)-1′-oxodihydro-1′H,3′H,5′H-spiro[piperidine-4,2′-pyrazolo[1,2-a]pyrazol]-1-yl)-N-methylpyrimidine-4-carboxamide], the EC50 came to 555 nM.
On to `O=C1N2[C@H](c3cc(F)cc(F)c3)CCN2CC12CCN(c1cc(-c3cnn(C(F)F)c3)ncn1)CC2` [Example 1.87, (S)-1-(6-(1-(difluoromethyl)-1H-pyrazol-4-yl)pyrimidin-4-yl)-7′-(3,5-difluorophenyl)dihydro-1′H,3′H,5′H-spiro[piperidine-4,2′-pyrazolo[1,2-a]pyrazol]-1′-one], for which the EC50 is 6 nM.
With `CN(C)C(=O)c1ccnc(N2CCC3(CC2)CN2CC[C@@H](c4cc(F)cc(F)c4)N2C3=O)n1` [Example 1.88, (S)-2-(7′-(3,5-difluorophenyl)-1′-oxodihydro-1′H,3′H,5′H-spiro[piperidine-4,2′-pyrazolo[1,2-a]pyrazol]-1-yl)-N,N-dimethylpyrimidine-4-carboxamide], the EC50 turned out to be 111 nM.
`COc1cc(N2CCC3(CC2)CN2CC[C@@H](c4cc(F)cc(F)c4)N2C3=O)ccn1` [Example 1.89, (S)-7′-(3,5-difluorophenyl)-1-(2-methoxypyridin-4-yl)dihydro-1′H,3′H,5′H-spiro[piperidine-4,2′-pyrazolo[1,2-a]pyrazol]-1′-one]: the EC50 was 24 nM.
Regarding `CNC(=O)c1ccnc(N2CCC3(CC2)CN2CC[C@@H](c4cc(F)cc(F)c4)N2C3=O)n1` [Example 1.90, (S)-2-(7′-(3,5-difluorophenyl)-1′-oxodihydro-1′H,3′H,5′H-spiro[piperidine-4,2′-pyrazolo[1,2-a]pyrazol]-1-yl)-N-methylpyrimidine-4-carboxamide], the EC50 was 106 nM.
Then `Cn1cnc(N2CCC3(CC2)CN2CC[C@@H](c4cc(F)cc(F)c4)N2C3=O)cc1=O` [Example 1.91, (S)-7′-(3,5-difluorophenyl)-1-(1-methyl-6-oxo-1,6-dihydropyrimidin-4-yl)dihydro-1′H,3′H,5′H-spiro [piperidine-4,2′-pyrazolo[1,2-a]pyrazol]-1′-one], with 750 nM.
As for `O=C1N2[C@H](c3cc(F)cc(F)c3)CCN2CC12CCN(c1nccc(C(F)(F)F)n1)CC2` [Example 1.92, (S)-7′-(3,5-difluorophenyl)-1-(4-(trifluoromethyl)pyrimidin-2-yl)dihydro-1′H,3′H,5′H-spiro[piperidine-4,2′-pyrazolo[1,2-a]pyrazol]-1′-one], the EC50 worked out at 91 nM.
On to `Cn1cc(-c2cc(N3CCC4(CC3)CN3CC[C@@H](c5cc(F)cc(F)c5)N3C4=O)ncn2)cn1` [Example 1.93, (S)-7′-(3,5-difluorophenyl)-1-(6-(1-methyl-1H-pyrazol-4-yl)pyrimidin-4-yl)dihydro-1′H,3′H,5′H-spiro[piperidine-4,2′-pyrazolo[1,2-a]pyrazol]-1′-one], for which the EC50 amounted to 17 nM.
For the compound `O=C1N2[C@H](c3cc(F)cc(F)c3)CCN2CC12CCN(c1cc(C(F)(F)F)ncn1)CC2` [Example 1.94, (S)-7′-(3,5-difluorophenyl)-1-(6-(trifluoromethyl)pyrimidin-4-yl)dihydro-1′H,3′H,5′H-spiro[piperidine-4,2′-pyrazolo[1,2-a]pyrazol]-1′-one], the EC50 was determined as 85 nM.
Take `COc1ccnc(N2CCC3(CC2)CN2CC[C@@H](c4cc(F)cc(F)c4)N2C3=O)n1` [Example 1.95, (S)-7′-(3,5-difluorophenyl)-1-(4-methoxypyrimidin-2-yl)dihydro-1′H,3′H,5′H-spiro[piperidine-4,2′-pyrazolo[1,2-a]pyrazol]-1′-one]: the EC50 came to 86 nM.
Then `O=C1N2[C@H](c3cc(F)cc(F)c3)CCN2CC12CCN(c1cnnc(Cl)c1)CC2` [Example 1.96, (S)-1-(6-chloropyridazin-4-yl)-7′-(3,5-difluorophenyl)dihydro-1′H,3′H,5′H-spiro[piperidine-4,2′-pyrazolo[1,2-a]pyrazol]-1′-one], with 571 nM; and `O=C1N2[C@H](c3cc(F)cc(F)c3)CCN2CC12CCN(c1ccc(Br)c3ccnn13)CC2` [Example 2.1], with 7.5 nM.
As to `N#Cc1ccc(N2CCC3(CC2)CN2CC[C@@H](c4cc(F)cc(F)c4)N2C3=O)c2ccnn12` [Example 2.2, (S)-4-(7′-(3,5-difluorophenyl)-1′-oxodihydro-l′H,3′H,5′H-spiro[piperidine-4,2′-pyrazolo[1,2-a]pyrazol]-1-yl)pyrazolo[1,5-a]pyridine-7-carbonitrile], the EC50 worked out at 9 nM.
Consider `Cc1cc(N2CCC3(CC2)CN2CC[C@@H](c4cc(F)cc(F)c4)N2C3=O)ccn1` [Example 2.3, (S)-7′-(3,5-difluorophenyl)-1-(2-methylpyridin-4-yl)dihydro-l′H,3′H,5′H-spiro[piperidine-4,2′-pyrazolo[1,2-a]pyrazol]-1′-one], for which the EC50 was 501 nM.
Regarding `N#Cc1cc(N2CCC3(CC2)CN2CC[C@@H](c4cc(F)cc(F)c4)N2C3=O)ccn1` [Example 2.4, (S)-4-(7′-(3,5-difluorophenyl)-1′-oxodihydro-l′H,3′H,5′H-spiro[piperidine-4,2′-pyrazolo[1,2-a]pyrazol]-1-yl)picolinonitrile], the EC50 was 49 nM.
The figure for `Cc1ccn(-c2ccnc(N3CCC4(CC3)CN3CC[C@@H](c5cc(F)cc(F)c5)N3C4=O)c2)n1` [Example 2.5, (S)-7′-(3,5-difluorophenyl)-1-(4-(3-methyl-1H-pyrazol-1-yl)pyridin-2-yl)dihydro-1′H,3′H,5′H-spiro[piperidine-4,2′-pyrazolo[1,2-a]pyrazol]-1′-one] is 118 nM; for `O=C1N2[C@H](c3cc(F)cc(F)c3)CCN2CC12CCN(c1noc3ccccc13)CC2` [Example 2.6, (S)-1-(benzo[d]isoxazol-3-yl)-7′-(3,5-difluorophenyl)dihydro-1′H,3′H,5′H-spiro[piperidine-4,2′-pyrazolo[1,2-a]pyrazol]-1′-one] it is 145 nM; for `O=C1N2[C@H](c3cc(F)cc(F)c3)CCN2CC12CCN(c1ccnc3ccccc13)CC2` [Example 2.7, (S)-7′-(3,5-difluorophenyl)-1-(quinolin-4-yl)dihydro-1′H,3′H,5′H-spiro[piperidine-4,2′-pyrazolo[1,2-a]pyrazol]-1′-one] it is 24 nM.
The figure for `Cc1ccc2c(N3CCC4(CC3)CN3CC[C@@H](c5cc(F)cc(F)c5)N3C4=O)ccnc2c1` [Example 2.8, (S)-7′-(3,5-difluorophenyl)-1-(7-methylquinolin-4-yl)dihydro-l′H,3′H,5′H-spiro[piperidine-4,2′-pyrazolo[1,2-a]pyrazol]-1′-one] is 24 nM.
